Assay [1] addresses T1, Oxytocin receptor (Rattus norvegicus, UniProt P70536).
T1 sequence (P70536 whole entry): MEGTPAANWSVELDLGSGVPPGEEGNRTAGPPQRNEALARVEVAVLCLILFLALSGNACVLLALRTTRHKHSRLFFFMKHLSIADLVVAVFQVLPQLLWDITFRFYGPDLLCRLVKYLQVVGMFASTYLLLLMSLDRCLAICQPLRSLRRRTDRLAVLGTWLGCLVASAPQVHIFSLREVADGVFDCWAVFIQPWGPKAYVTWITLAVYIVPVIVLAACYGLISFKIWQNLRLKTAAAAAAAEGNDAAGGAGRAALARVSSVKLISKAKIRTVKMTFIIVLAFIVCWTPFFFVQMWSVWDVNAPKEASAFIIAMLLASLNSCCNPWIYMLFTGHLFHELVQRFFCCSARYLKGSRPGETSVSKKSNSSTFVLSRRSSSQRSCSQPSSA
Put plainly: Antagonist activity at OXR receptor in rat uterus. Format: functional.

Assay [2] addresses T2, Vasopressin V2 receptor (Homo sapiens, UniProt P30518). Description: Binding affinity to V2 receptor (unknown origin).
Assay [3] concerns the target T3, Vasopressin V1a receptor (Homo sapiens, UniProt P37288). Put plainly: Agonist activity at human V1A receptor expressed in CHO cells assessed as increase in myo-inositol 1-phosphate accumulation at 1 uM by IP-One assay relative to AVP. Format: functional, cell-based.
Target sequence in this assay (P37288 whole entry, looked up): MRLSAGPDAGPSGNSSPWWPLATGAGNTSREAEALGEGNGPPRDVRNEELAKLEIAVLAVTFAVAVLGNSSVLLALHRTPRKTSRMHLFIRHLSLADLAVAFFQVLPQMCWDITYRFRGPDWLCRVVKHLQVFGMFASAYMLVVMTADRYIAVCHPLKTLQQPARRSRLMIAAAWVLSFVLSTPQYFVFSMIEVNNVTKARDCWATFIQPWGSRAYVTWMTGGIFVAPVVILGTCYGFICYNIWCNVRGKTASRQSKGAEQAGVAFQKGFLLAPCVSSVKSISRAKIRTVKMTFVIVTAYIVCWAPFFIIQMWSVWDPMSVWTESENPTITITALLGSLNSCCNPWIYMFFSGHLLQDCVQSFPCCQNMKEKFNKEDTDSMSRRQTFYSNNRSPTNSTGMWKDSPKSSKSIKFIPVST
Assay [4] is filed under the species Homo sapiens. Put plainly: Selectivity for human OTR receptor over human V2 receptor.
For assay [5], the species on record is Homo sapiens. Put plainly: Selectivity for human V1a receptor over human V2 receptor.
In assay [6] the target is T3, Vasopressin V1a receptor. Put plainly: Antagonist activity at V1A receptor (unknown origin) by cAMP accumulation assay. In kind it is functional. (In general: Cyclic AMP is a second messenger, typically raised through Gs and lowered through Gi signalling.)
Target sequence in this assay (P37288 whole entry): as the sequence (P37288 whole entry, looked up) above
Assay [7] deals with T3, Vasopressin V1a receptor. Description: Antagonist activity at human V1A receptor expressed in CHO cells assessed as inhibition of AVP-induced myo-inositol 1-phosphate accumulation at 1 uM by IP-One assay relative to AVP. Format: functional, cell-based.
Target sequence in this assay (P37288 whole entry, looked up): as above
Assay [8] concerns the target T3, Vasopressin V1a receptor. Description: Binding affinity to V1A receptor (unknown origin).
Target sequence in this assay (P37288 whole entry): as the sequence (P37288 whole entry, looked up) above
Another assay has as its target T4, Vasopressin V1b receptor (Homo sapiens, UniProt P47901).
T4 sequence (P47901 whole entry): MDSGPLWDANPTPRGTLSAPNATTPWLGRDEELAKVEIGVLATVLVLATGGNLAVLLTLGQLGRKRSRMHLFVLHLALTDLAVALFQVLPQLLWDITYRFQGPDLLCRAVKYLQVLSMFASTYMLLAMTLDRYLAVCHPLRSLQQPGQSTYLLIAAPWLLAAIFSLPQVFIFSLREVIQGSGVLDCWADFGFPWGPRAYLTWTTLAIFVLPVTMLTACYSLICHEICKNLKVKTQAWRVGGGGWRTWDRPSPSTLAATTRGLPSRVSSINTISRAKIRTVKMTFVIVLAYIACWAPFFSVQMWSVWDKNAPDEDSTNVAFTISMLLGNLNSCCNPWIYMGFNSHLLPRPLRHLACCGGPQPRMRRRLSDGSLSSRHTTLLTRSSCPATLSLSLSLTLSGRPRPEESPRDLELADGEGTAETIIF
Description: Binding affinity to V1B receptor (unknown origin).

Assay [9] has as its target T2, Vasopressin V2 receptor. Description: Agonist activity at V2 receptor (unknown origin) by cAMP accumulation assay. Format: functional.
In assay [10] the target is T5, Oxytocin receptor (Homo sapiens, UniProt P30559).
T5 sequence (P30559 whole entry): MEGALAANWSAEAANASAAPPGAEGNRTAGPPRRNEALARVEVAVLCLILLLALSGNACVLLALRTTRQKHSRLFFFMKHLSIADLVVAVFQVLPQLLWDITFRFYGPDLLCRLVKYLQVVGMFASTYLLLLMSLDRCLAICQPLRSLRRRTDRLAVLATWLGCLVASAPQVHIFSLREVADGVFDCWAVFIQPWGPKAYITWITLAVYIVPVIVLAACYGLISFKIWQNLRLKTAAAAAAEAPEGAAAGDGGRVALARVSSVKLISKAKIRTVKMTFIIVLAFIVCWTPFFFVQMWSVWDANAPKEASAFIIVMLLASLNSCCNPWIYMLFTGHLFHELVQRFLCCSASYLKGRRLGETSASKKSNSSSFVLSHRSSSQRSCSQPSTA
Description: Binding affinity to OTR receptor (unknown origin).

The target in assay [11] is T2, Vasopressin V2 receptor. Put plainly: Antagonist activity at human V2 receptor expressed in HEK293FT cells assessed as inhibition of […] response incubated for 30 mins by beta-arrestin recruitment assay. Format: functional, cell-based. In general terms: Activated receptors often draw arrestin, which recruitment assays turn into a signal.
Assay [12] has as its target T5, Oxytocin receptor. Description: Antagonist activity at human OTR receptor expressed in HEK293FT cells assessed as inhibition of LIT-001-induced response incubated for 30 mins by beta-arrestin recruitment assay. Format: functional, cell-based.
The target in assay [13] is T2, Vasopressin V2 receptor. Put plainly: Antagonist activity at human V2 receptor expressed in HEK293FT cells assessed as inhibition of AVP-induced calcium release by Aequorin based assay. Format: functional, cell-based.
Assay [14] has as its target T5, Oxytocin receptor. Put plainly: Antagonist activity at human OTR receptor expressed in HEK293FT cells assessed as inhibition of LIT-001-induced calcium release by Aequorin based assay. In kind it is functional, cell-based.

2 compounds from ChEMBL document CHEMBL4196200 (J Med Chem, 2018) can be followed below.

T2 sequence (P30518 whole entry): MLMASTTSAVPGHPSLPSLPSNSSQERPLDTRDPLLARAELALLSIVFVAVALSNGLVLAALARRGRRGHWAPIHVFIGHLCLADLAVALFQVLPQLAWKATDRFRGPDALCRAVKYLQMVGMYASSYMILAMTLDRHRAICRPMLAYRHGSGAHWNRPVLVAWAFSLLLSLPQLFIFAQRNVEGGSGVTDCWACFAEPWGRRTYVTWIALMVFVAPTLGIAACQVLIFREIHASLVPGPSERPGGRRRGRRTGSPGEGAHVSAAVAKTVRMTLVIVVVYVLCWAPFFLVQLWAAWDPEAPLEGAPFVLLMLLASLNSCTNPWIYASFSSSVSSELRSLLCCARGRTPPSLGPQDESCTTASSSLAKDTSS

For `Cc1ccn(-c2ccc(C(=O)N3Cc4cccn4Cc4ccccc43)c(Cl)c2)n1`, the IC50 was found to be 55 nM against Oxytocin receptor [1] and 1660 nM against Vasopressin V1a receptor [6]. Further, the Ki on Vasopressin V2 receptor [2] is 39.9 nM; on Vasopressin V1a receptor [8], 465 nM; on Vasopressin V1b receptor, more than 1000 nM; on Oxytocin receptor [10], 125 nM. In addition, the Emax on Vasopressin V1a receptor [3] is less than 10%. In addition, the Selectivity ratio came out at 4 in the assay listed under Homo sapiens [4] and 6.9 in the assay filed under Homo sapiens [5]. The inhibition at Vasopressin V1a receptor [7] is 33%. For the same compound, the EC50 at Vasopressin V2 receptor [9] was found to be 0.7 nM.

Regarding `COCc1nnc(N2CC(Oc3ccc(F)cc3Cl)C2)n1-c1ccc(OC)nc1`, the IC50 at Vasopressin V2 receptor [11] turned out to be 2620 nM; at Oxytocin receptor [12], 63 nM; on Vasopressin V2 receptor [13], 1530 nM; at Oxytocin receptor [14] it was 600 nM.

The IC50 is the concentration that gives 50% inhibition. As a reminder, the Ki is a dissociation constant, usually derived from enzyme kinetics or from competition with a known ligand. Lower therefore signals a stronger hold on the target. A word on the Emax: it is the size of the effect at its maximum, as opposed to the concentration needed. As usually defined, the inhibition is the percentage by which the read-out fell short of the control. One may read the EC50 as the concentration that produces a half-maximal response. Read a low EC50 as greater potency.
